Data as given in patent US11267844B2, “Spirothietane nucleosides” (Janssen Pharmaceutica NV, priority 2017, dated 2022).

Columns and labels:
[1] = tested on: CHIKV strain S27; assay: CHIKV CPE inhibition assay in Huh7 cells; type: cell-based; settings: Chikungunya virus, Huh-7, 48 h, read-out: CHIKV Huh-7 (EC50, μM)
Description: The antiviral activities of the nucleoside analogs against chikungunya virus (CHIKV) were tested using a cell-based high-throughput CPE (cytopathic effect) inhibition assay. In this assay, CHIKV strain S27 and Huh7 cells (a human hepatoma cell line) were employed. The test compounds were prepared in a 9-point fourfold serial dilutions and plated in a 384-well plate. Then, a density of 8000 cells/well and an MOI (Multiplicity of Infection) of 0.25 CHIKV were added to each well. The plates were incubated at 37° C./5% CO2 for 2 days. The antiviral activity of a test compound was measured by addition of an ATPLite™ 1-step kit (PerkinElmer), which measures the ATP levels in live cells protected from viral CPE by a test compound. The cytotoxicity of test compounds was measured in parallel in the absence of virus infection. The readout is luminescence.

[2] = tested on: DENV-2/16681/eGFP; assay: Antiviral activity against DENV-2/16681/eGFP in Vero cells (eGFP read-out); type: cell-based, dengue virus serotype 2; settings: Dengue virus, DENV2, Vero, 72 h, read-out: DENV Vero (EC50, μM)
Description: (§1) The antiviral activity of the compounds against DENV-2/16681/eGFP was determined in a phenotypic antiviral assay with eGFP read-out, a measure for the amount of virus (TV-WI-03476 and TV-WI-05601). In parallel, cytotoxicity of the compounds was measured using ATPLite™ (PerkinElmer, Waltham, Mass.). The assay was performed in two different cell-lines (Vero and Huh-7) to exclude cell-specific activity of the compound.
(§2) DENV-2/16681/eGFP was produced by the transfection of the in vitro transcribed RNA of plasmid pFK-DVs-G2A (purchased from Prof. R. Bartenschlager, University of Heidelberg, Germany; FIG. 1) into Huh-7 cells (human hepatocarcinoma cells; kindly provided by Prof. R. Bartenschlager) (TV-WI-04247).
(§3) In brief, 2,500 Vero cells (African green monkey kidney cells; European Collection of Cell Cultures [ECACC], Porton Down, UK; catalogue number 84113001) or Huh-7 cells were seeded in 384-well plates containing 9-fold serially diluted test compound. After incubating 24 h at 37° C., Vero and Huh-7 cells were infected with DENV-2/16681/eGFP at a multiplicity of infection (MOI) of 1 and 5, respectively. After 3 days of incubation at 37° C., the viral replication was quantified by measuring eGFP expression in the cells with a laser microscope. The 50% effective concentration (EC50) was defined as the concentration inhibiting 50% of the eGFP expression of the compound-treated DENV-infected cells vs. the untreated DENV-infected cells (virus control), using the cell controls as baseline of eGFP signal (i.e., 0% signal). In the same way, the 90% effective concentration (EC90) was calculated.

[3] = tested on: HCV replicon (NS3-NS5B regions of HCV type 1b) in Huh-7 luc/neo cells; assay: HCV replicon assay (Huh-Luc cells, luciferase read-out); type: cell-based; settings: Hepatitis C virus, Huh-7, 72 h; Table 1A; Huh-Luc replicon cells, 3 days; read-out: HCV Huh-7 (EC50)
Description: The compounds of Formula (I) were examined for activity against HCV in a cellular assay. […] The cellular assay was based on a bicistronic expression construct, as described by Lohmann et al. (1999) Science vol. 285 pp. 110-113 with modifications described by Krieger et al. (2001) Journal of Virology 75: 4614-4624, in a multi-target screening strategy.
In essence, the method was as follows. The assay utilized the stably transfected cell line Huh-7 luc/neo (hereafter referred to as Huh-Luc). This cell line harbors an RNA encoding a bicistronic expression construct comprising the wild type NS3-NS5B regions of HCV type 1b translated from an internal ribosome entry site (IRES) from encephalomyocarditis virus (EMCV), preceded by a reporter portion (FfL-luciferase), and a selectable marker portion (neo^R, neomycine phosphotransferase). The construct is bordered by 5′ and 3′ NTRs (non-translated regions) from HCV genotype 1b. Continued culture of the replicon cells in the presence of G418 (neo^R) is dependent on the replication of the HCV-RNA. The stably transfected replicon cells that express HCV-RNA, which replicates autonomously and to high levels, encoding inter alia luciferase, were used for screening the antiviral compounds.
The replicon cells were plated in 384-well plates in the presence of the test and control compounds which were added in various concentrations. Following an incubation of three days, HCV replication was measured by assaying luciferase activity (using standard luciferase assay substrates and reagents and a Perkin Elmer ViewLux™ ultraHTS microplate imager). Replicon cells in the control cultures have high luciferase expression in the absence of any inhibitor. The inhibitory activity of the compound on luciferase activity was monitored on the Huh-Luc cells, enabling a dose-response curve for each test compound. EC50 values were then calculated, which value represents the amount of the compound required to decrease the level of detected luciferase activity by 50%, or more specifically, the ability of the genetically linked HCV replicon RNA to replicate.

[4] = tested on: DENV-2/16681/eGFP; assay: Antiviral activity against DENV-2/16681/eGFP in Huh-7 cells (eGFP read-out); type: cell-based, dengue virus serotype 2; settings: Dengue virus, DENV2, Huh-7, 72 h, read-out: DENV Huh-7 (EC50, μM)
Description: as §1, §2, §3

[5] = Cytotoxicity in Huh-7 cells (ATPlite cell viability); type: cell-based; settings: human, Table 1A, read-out: Tox Huh-7 (CC50)
Description: as §1
(§4) In parallel, cytotoxic effects of the compounds (50% cytotoxic concentration [CC50] and 90% cytotoxic concentration [CC90]) were evaluated using an ATPlite cell viability luminescence assay (PerkinElmer). To this end, ATPlite was added to the wells according to the supplier's instructions once the eGFP read-out was performed, and the luminescence was measured; a measure directly relating to the number of viable cells. The CC50 was determined as the 50% inhibitory concentration for the luminescent signal in compound-treated DENV-infected cells compared to untreated DENV-infected cells (virus control), using a medium control as baseline of emitted light (i.e., 0% signal).

[6] = Cytotoxicity in Vero cells (ATPlite cell viability); type: cell-based; settings: African green monkey, Table 1A, read-out: Tox Vero (CC50)
Description: as §1, §4

[7] = target: HCV polymerase (Hepatitis C virus genotype 1b, UniProt Q9WMX2); assay: Biochemical HCV polymerase inhibition
[8] = target: T1, dengue virus NS5 polymerase domain (DENVpol, serotype 2, New Guinea C strain) (Dengue virus type 2, UniProt P14340); assay: Dengue virus polymerase inhibition assay; type: biochemical, dengue virus serotype 2
T1 construct: The enzyme activity of dengue virus NS5 polymerase domain
Description: The enzyme activity of dengue virus NS5 polymerase domain (DENVpol, serotype 2, New Guinea C strain) is measured as an incorporation of tritiated NMP into acid-insoluble RNA products. DENVpol assay reactions contain recombinant enzyme, heteropolymeric RNA, about 0.5 μCi tritiated NTP, 0.33 μM of competing cold NTP, 40 mM HEPES (pH 7.5), 3 mM dithiothreitol, and 2 mM MgCl2. Standard reactions are incubated for 3 hours at 30° C., in the presence of increasing concentration of inhibitor. At the end of the reaction, RNA is precipitated with 10% TCA, and acid-insoluble RNA products are filtered on a size exclusion 96-well plate. After washing of the plate, scintillation liquid is added and radiolabeled RNA products are detected according to standard procedures with a Trilux Topcount scintillation counter. The compound concentration at which the enzyme-catalyzed rate is reduced by 50% (IC50) is calculated by fitting the data to a non-linear regression (sigmoidal).

Sequence of HCV polymerase (Q9WMX2 2420-3010): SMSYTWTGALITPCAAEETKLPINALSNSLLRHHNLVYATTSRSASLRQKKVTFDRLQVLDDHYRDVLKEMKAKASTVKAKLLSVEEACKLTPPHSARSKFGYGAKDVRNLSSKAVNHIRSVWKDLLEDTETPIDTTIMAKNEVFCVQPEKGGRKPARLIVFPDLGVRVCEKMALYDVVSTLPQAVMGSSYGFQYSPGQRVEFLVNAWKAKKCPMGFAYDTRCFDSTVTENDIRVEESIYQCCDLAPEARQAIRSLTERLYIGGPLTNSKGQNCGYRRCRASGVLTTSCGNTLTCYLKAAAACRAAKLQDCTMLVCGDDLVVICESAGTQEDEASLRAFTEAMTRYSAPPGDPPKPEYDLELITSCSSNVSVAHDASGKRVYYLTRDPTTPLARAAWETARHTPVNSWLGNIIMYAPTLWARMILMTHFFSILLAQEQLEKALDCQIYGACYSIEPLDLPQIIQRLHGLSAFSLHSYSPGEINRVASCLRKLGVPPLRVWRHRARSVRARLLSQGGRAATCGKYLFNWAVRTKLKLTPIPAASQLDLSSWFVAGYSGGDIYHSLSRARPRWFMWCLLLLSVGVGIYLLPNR

Row | Compound | EC50 [1] [µM] | EC50 [2] [µM] | EC50 [3] [µM] | EC50 [4] [µM] | CC50 [5] [µM] | CC50 [6] [µM] | IC50 [7] [µM] | IC50 [8] [µM]
1 | [N-]=[N+]=N[C@]1(CO)O[C@@H](n2ccc(=O)[nH]c2=O)[C@@]2(CCS2)[C@@H]1O [Compound 44, 1-[(4R,5R,6R,8R)-6-azido-5-hydroxy-6-(hydroxymethyl)-7-oxa-1-thiaspiro[3.4]octan-8-yl]pyrimidine-2,4-dione] | > 100 | > 100 | > 100 | > 100 | > 100 | > 100 |  | 
2 | O=c1ccn([C@@H]2O[C@H](COP(=O)(O)OP(=O)(O)OP(=O)(O)O)[C@@H](O)[C@]23CCS3)c(=O)[nH]1 [Compound 58] |  |  |  |  |  |  | 0.74 | 49.7
3 | Nc1ccn([C@@H]2O[C@H](COP(=O)(O)OP(=O)(O)OP(=O)(O)O)[C@@H](O)[C@]23CCS3)c(=O)n1 [Compound 59] |  |  |  |  |  |  | 0.32 | 2.91
4 | O=c1ccn([C@@H]2O[C@](F)(COP(=O)(O)OP(=O)(O)OP(=O)(O)O)[C@@H](O)[C@]23CCS3)c(=O)[nH]1 [Compound 60] |  |  |  |  |  |  | 0.69 | > 10
5 | Nc1ccn([C@@H]2O[C@](F)(COP(=O)(O)OP(=O)(O)OP(=O)(O)O)[C@@H](O)[C@]23CCS3)c(=O)n1 [Compound 61] |  |  |  |  |  |  | 0.16 | 2.44
6 | [N-]=[N+]=N[C@]1(COP(=O)(O)OP(=O)(O)OP(=O)(O)O)O[C@@H](n2ccc(=O)[nH]c2=O)[C@@]2(CCS2)[C@@H]1O [Compound 62] |  |  |  |  |  |  | 0.56 | 
7 | Nc1nc2c(ncn2[C@@H]2O[C@H](COP(=O)(O)OP(=O)(O)OP(=O)(O)O)[C@@H](O)[C@]23CCS3)c(=O)[nH]1 [Compound 63] |  |  |  |  |  |  | 0.18 | > 10
8 | Nc1ncnc2c1ncn2[C@@H]1O[C@H](CO)[C@@H](O)[C@]12CCS2 [Compound 67, (4R,5R,7R,8R)-5-(6-amino-9H-purin-9-yl)-7-(hydroxymethyl)-6-oxa-1-thiaspiro[3.4]octan-8-ol] | > 50 | > 50 | > 50 | > 50 | > 50 | > 50 |  | 
